Assays:
Type in all cases: biochemical
MPO [1] = target: T1, MPO (Homo sapiens, UniProt P05164); assay: Sensitivity of chromogenic substrates: MPO peroxidase activity in buffer solution; conditions: 0.24 mM H2O2, 94 ng/mL MPO, 100 mM phosphate buffer pH 6.0-7.0; for ΔOD/min: read at the substrate's wavelength; for Sensitivity: class of ΔOD/min
Source text: Substrate sensitivity was designated as “high” if ΔOD/min was above 0.2, “fair” if ΔOD/min was between 0.05 and 0.2, and “poor” if ΔOD/min was below 0.05.

MPO [2] = target: T1, MPO; assay: Interference by a specific MPO inhibitor (ABAH) added to the formed dye; conditions: 0.2 mM H2O2, 47 ng/mL MPO, 100 mM phosphate buffer pH 6.0-7.0; for Interference by Inhibitor: 0.1 mM ABAH added to the formed dye; for ΔOD/min (after inhibitor): after 0.1 mM ABAH; for ΔOD/min (before inhibitor): before ABAH
Method: Interference by a specific MPO inhibitor was evaluated by adding 0.1 mM of 4-aminobenzoic acid hydrazide (ABAH) to the formed dye (i.e. the colored product of the substrate oxidation) in the buffer solution. Before the addition of the inhibitor, the reaction mixture contained the chromogenic substrates, as well as 0.2 mM H2O2 (co-substrate) and 47 ng/mL MPO in 100 mM phosphate buffer (pH 6.0-7.0). Interference by the inhibitor was designated as “low” if the absorption changed by ≦0.01 ΔOD/min and “high” if the absorption changed by >0.01 ΔOD/min. The results are summarized in Tables 2 and 6, and the corresponding kinetic traces are shown on FIG. 1.

MPO [3] = target: T2, MPO (Homo sapiens, UniProt P05164); assay: MPO peroxidase assay in lithium heparin plasma (Hitachi 917): effects of common plasma substances on assay performance; conditions: nearly neutral pH
T2 construct: In a cuvette, 140 μL of Reagent 1 and 25 μL of plasma sample were mixed; from tissue; host or cells: human lithium heparin plasma
T2 sequence (P05164 49-745): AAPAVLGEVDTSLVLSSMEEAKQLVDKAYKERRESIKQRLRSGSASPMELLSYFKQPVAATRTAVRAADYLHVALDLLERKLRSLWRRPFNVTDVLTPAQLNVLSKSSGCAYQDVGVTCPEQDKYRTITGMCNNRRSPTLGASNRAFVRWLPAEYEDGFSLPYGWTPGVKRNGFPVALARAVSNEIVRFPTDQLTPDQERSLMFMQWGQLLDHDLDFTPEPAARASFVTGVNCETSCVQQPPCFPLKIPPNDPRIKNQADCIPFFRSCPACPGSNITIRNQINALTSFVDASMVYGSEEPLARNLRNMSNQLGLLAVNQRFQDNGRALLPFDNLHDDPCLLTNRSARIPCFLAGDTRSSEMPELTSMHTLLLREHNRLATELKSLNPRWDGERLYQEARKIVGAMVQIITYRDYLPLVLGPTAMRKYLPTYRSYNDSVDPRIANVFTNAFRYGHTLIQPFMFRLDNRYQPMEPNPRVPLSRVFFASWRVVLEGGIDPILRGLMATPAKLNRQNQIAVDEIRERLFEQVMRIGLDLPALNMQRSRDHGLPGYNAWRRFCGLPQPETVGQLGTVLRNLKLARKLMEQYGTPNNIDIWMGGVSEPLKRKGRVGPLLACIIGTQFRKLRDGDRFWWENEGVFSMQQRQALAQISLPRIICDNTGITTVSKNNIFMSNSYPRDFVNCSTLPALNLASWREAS
Method: To measure MPO peroxidase activity in blood samples, the following liquid stable, ready-to-use assay reagents were used:
The MPO peroxidase assay is formulated for use with non-hemolyzed lithium heparin plasma. No special handling or pretreatment is required. Plasma samples were collected such that testing could be performed as soon as possible after the specimen collection. Although the specimens may be refrigerated at 2-8° C. for 2-5 days, freezing plasma samples may lead to a decrease in MPO peroxidase activity.
In a cuvette, 140 μL of Reagent 1 and 25 μL of plasma sample were mixed and incubated at 37° C. for 1.5 minutes. Absorbance at 505 nm was read at about 2 minutes after the addition of 60 μL Reagent 2 as A1. The reaction was then incubated for approximately 3 more minutes, and the absorbance was read again as A2. The rate of the total peroxidation reaction was calculated as follows: Rate A=(A2−A1)/t, wherein t≈3 min
At about 5 minutes after the addition of Reagent 2, 46 μL of Reagent 3 was added to the reaction mix. Absorbance at 505 nm was read at about 2 minutes after the addition of Reagent 3 as A3. The reaction was then incubated for approximately 3 more minutes and the absorbance was read again as A4. The rate of the non-MPO peroxidation reaction was calculated as follows: Rate B=(A4−A3)/t, wherein t 3 min […]

N-Ethyl-N-(2-hydroxy-3-sulfopropyl)-3-methoxylaniline, sodium salt, dehydrate/4AA [ADOS/4AA]
ΔOD/min (MPO [1]): 0.04 ΔOD/min | Sensitivity (MPO [1]): Poor (“poor” if ΔOD/min was below 0.05)

N,N-Bis(4-sulfobutyl)-3,5-dimethylaniline, disodium salt/4AA [MADB/4AA]
ΔOD/min (MPO [1]): 0.04 ΔOD/min | Sensitivity (MPO [1]): Poor (“poor” if ΔOD/min was below 0.05)

4-Methylcatechol/4AA [4-MC/4AA]
Sensitivity (MPO [1]): Poor (“poor” if ΔOD/min was below 0.05) | Interference by Inhibitor (MPO [2]): high numbers of false positives

N-Ethyl-N-(2-hydroxy-3-sulfopropyl)-3,5-dimethoxyaniline, sodium salt/4AA [DAOS/4AA]
ΔOD/min (MPO [1]): 0.025 ΔOD/min | Sensitivity (MPO [1]): Poor (“poor” if ΔOD/min was below 0.05)

CCCCCCCCCCCCCC[N+](C)(C)Cc1ccccc1.[Cl-] [TDBA, Tetradecyldimethylbenzylammonium chloride]
ΔOD/min (MPO [1]): 0 ΔOD/min | Sensitivity (MPO [1]): Poor (“poor” if ΔOD/min was below 0.05)

Cc1cc(-c2cc(C)c(N)c(C)c2)cc(C)c1N [TMB, 3,3′,5,5′-Tetramethylbenzidine]
ΔOD/min (MPO [1]): 0.32 ΔOD/min | Sensitivity (MPO [1]): High (“high” if ΔOD/min was above 0.2)

N,N-Bis(4-sulfobutyl)-3-methylaniline, disodium salt (TODB)/3-Methyl-2-benzothiazolinone hydrazone (MBTH) [TODB/MBTH]
Sensitivity (MPO [1]): Fair (“fair” if ΔOD/min was between 0.05 and 0.2) | Interference by Inhibitor (MPO [2]): high numbers of false positives

CC(=O)N1c2ccc(O)cc2Oc2cc(O)ccc21 [Amplex, N-Acetyl-3,7-dihydroxyphenoxazine (Amplex ® UltraRed)]
ΔOD/min (MPO [1]): 0.018 ΔOD/min | Sensitivity (MPO [1]): Poor (“poor” if ΔOD/min was below 0.05)

CN(C)c1ccc(N(C(=O)NCC(=O)[O-])c2ccc(N(C)C)cc2)cc1.[Na+] [DA64, N-(Carboxymethylaminocarbonyl)-4,4′-bis(dimethylamino)-diphenylamine sodium salt]
ΔOD/min (MPO [1]): 0.0012 ΔOD/min | Sensitivity (MPO [1]): Poor (“poor” if ΔOD/min was below 0.05)

N-Ethyl-N-(2-hydroxy-3-sulfopropyl)-3,5-dimethylaniline, sodium salt, monohydrate/4AA [MAOS/4AA]
ΔOD/min (MPO [1]): 0.045 ΔOD/min | Sensitivity (MPO [1]): Poor (“poor” if ΔOD/min was below 0.05)

Cc1cc(-c2ccc(NCC(O)CS(=O)(=O)[O-])c(C)c2)ccc1NCC(O)CS(=O)(=O)[O-].[Na+].[Na+] (centres unmarked) [SAT-3, N,N′-Bis(2-hydroxy-3-sulfopropyl)tolidine, disodium salt,]
ΔOD/min (MPO [1]): 0 ΔOD/min | Sensitivity (MPO [1]): Poor (“poor” if ΔOD/min was below 0.05)

N,N-Bis(4-sulfobutyl)-3-methylaniline, disodium salt/4AA [TODB/4AA]
ΔOD/min (MPO [1]): 0.07 ΔOD/min | ΔOD/min (after inhibitor) (MPO [2]): 0.001 ΔOD/min | ΔOD/min (before inhibitor) (MPO [2]): 0.077 ΔOD/min

N-(2-Hydroxy-3-sulfopropyl)-3,5-dimethoxyaniline, sodium salt/4AA [HDAOS/4AA]
ΔOD/min (MPO [1]): 0.03 ΔOD/min | Sensitivity (MPO [1]): Poor (“poor” if ΔOD/min was below 0.05)

Nc1ccc(-c2ccc(N)c(N)c2)cc1N [DAB, 3,3′-Diaminobenzidine]
ΔOD/min (MPO [1]): 0.0093 ΔOD/min | Sensitivity (MPO [1]): Poor (“poor” if ΔOD/min was below 0.05)

O=N[O-].[K+] [KNO2, Potassium nitrite]
ΔOD/min (MPO [1]): No signal | Sensitivity (MPO [1]): Poor (“poor” if ΔOD/min was below 0.05)

3,5-Dichloro-2-hydroxybenzenesulfonate, disodium salt/4AA or 3,5-Dichloro-2-hydroxybenzenesulfonic acid/4AA [DHBS/4AA]
ΔOD/min (after inhibitor) (MPO [2]): 0.002 ΔOD/min | ΔOD/min (before inhibitor) (MPO [2]): 0.089 ΔOD/min

N-Ethyl-N-(2-hydroxy-3-sulfopropyl)-3-methylaniline, sodium salt, dehydrate/4-Aminoantipyrine (4AA) [TOOS/4AA]
ΔOD/min (MPO [1]): 0.12 ΔOD/min | ΔOD/min (after inhibitor) (MPO [2]): 0.004 ΔOD/min | ΔOD/min (before inhibitor) (MPO [2]): 0.087 ΔOD/min

N-Ethyl-N-(3-sulfopropyl)-3-methoxyaniline, sodium salt, monohydrate/4AA [ADPS/4AA]
ΔOD/min (MPO [1]): 0.004 ΔOD/min | Sensitivity (MPO [1]): Poor (“poor” if ΔOD/min was below 0.05)

COc1ccccc1O [Guaiacol, 1-Hydroxy-2-methoxybenzene; 2-Methoxyphenol]
ΔOD/min (MPO [1]): 0.37 ΔOD/min | Sensitivity (MPO [1]): High (“high” if ΔOD/min was above 0.2)

CN(C)c1ccc2c(c1)Sc1cc(N(C)C)ccc1N2C(=O)NCC(=O)[O-].[Na+] [DA67, 10-(Carboxymethylaminocarbonyl)-3,7-bis(dimethylamino)-phenothiazine sodium salt]
ΔOD/min (MPO [1]): 0.023 ΔOD/min | Sensitivity (MPO [1]): Poor (“poor” if ΔOD/min was below 0.05)

N,N-dimethylaniline (DMA)/3-Methyl-2-benzothiazolinone hydrazone (MBTH) [DMA/MBTH]
Sensitivity (MPO [1]): Poor (“poor” if ΔOD/min was below 0.05)

N-Ethyl-N-(3-sulfopropyl)-aniline, sodium salt (ALPS)/3-Methyl-2-benzothiazolinone hydrazone (MBTH) [ALPS/MBTH]
Sensitivity (MPO [1]): Fair (“fair” if ΔOD/min was between 0.05 and 0.2) | Interference by Inhibitor (MPO [2]): high numbers of false positives

N-Ethyl-N-(3-sulfopropyl)-3-methylaniline, sodium salt/4AA [TOPS/4AA]
ΔOD/min (MPO [1]): 0.055 ΔOD/min

N-Ethyl-N-(3-sulfopropyl)-aniline, sodium salt/4AA [ALPS/4AA]
ΔOD/min (after inhibitor) (MPO [2]): −0.003 ΔOD/min | ΔOD/min (before inhibitor) (MPO [2]): 0.086 ΔOD/min

COc1cc(-c2ccc(N)c(OC)c2)ccc1N.Cl.Cl [o-dianisidine, o-Dianisidine dihydrochloride]
Sensitivity (MPO [1]; dihydrochloride): precipitated out of solution | behaviour of the chromogenic substrate in blood samples (MPO [3]): precipitated from blood samples

Reference: US20110287468A1, “METHODS AND COMPOSITIONS FOR ASSAYING ENZYMATIC ACTIVITY OF MYELOPEROXIDASE IN BLOOD SAMPLES” (General Atomics, priority 2010, published 2011)
